Data taken from PubChem BioAssay (NCI).
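Grown in 96-well plates, cells were treated for 48 hours with each compound at five concentrations. Insufficient inhibition: endpoint recorded as highest concentration tested. TGI is the concentration that stops growth completely.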

Key:
Test in all cases: NCI anticancer screen, dose series, 48 h
[1] = tested on: BT-549 breast
[2] = tested on: HL-60(TB) leukemia
[3] = tested on: HT29 colon
[4] = tested on: M14 melanoma
[5] = tested on: MDA-MB-231 breast
[6] = tested on: MDA-N
[7] = tested on: OVCAR-3 ovarian
[8] = tested on: OVCAR-4 ovarian
[9] = tested on: OVCAR-5 ovarian
[10] = tested on: PC-3 prostate
[11] = tested on: RPMI-8226 leukemia
[12] = tested on: SF-268 CNS
[13] = tested on: SK-MEL-28 melanoma
[14] = tested on: SNB-19 CNS
[15] = tested on: SW-620 colon
[16] = tested on: SR leukemia

SMILES	TGI [1]	TGI [2]	TGI [3]	TGI [4]	TGI [5]	TGI [6]	TGI [7]	TGI [8]	TGI [9]	TGI [10]	TGI [11]	TGI [12]	TGI [13]	TGI [14]	TGI [15]	TGI [16]
CCOC(=O)/C=C(/C(=O)OCC)n1c(=O)c(C)cn(C2CC(N=[N+]=[N-])C(CO)O2)c1=O (stereo unspecified)	> 100 µM	5.18 µM	> 100 µM	> 100 µM	46 µM	> 100 µM	50.3 µM	> 100 µM	> 100 µM	32.8 µM	49 µM	> 100 µM	84.6 µM	> 100 µM	34.1 µM	
CC1(C)Oc2ccc(Cl)cc2C12CC2	68.5 µM	40.3 µM	34.7 µM	35.5 µM	47.6 µM	35.9 µM	26.7 µM	29.6 µM	34.2 µM	27.9 µM	> 100 µM	31.6 µM	41.7 µM	31.5 µM	30.9 µM	36.4 µM
O=C(CCc1cc(O)cc(O)c1)NCCc1ccc(O)c(O)c1	> 100 µM		> 100 µM	> 100 µM	> 100 µM	> 100 µM	> 100 µM		> 100 µM	> 100 µM	> 100 µM	> 100 µM	> 100 µM	> 100 µM	> 100 µM	> 100 µM
O=[N+]([O-])c1cccc2nc3ccccc3c(NCCC[N+]3([O-])CCCCC3)c12	1.53 µM	8.44 µM	6.37 µM	2.95 µM	1.16 µM	0.56 µM	0.852 µM	1.15 µM	2.36 µM	0.649 µM	10.5 µM	2.22 µM	5.11 µM	9.18 µM	> 34.8 µM	
O=C1CCC2=C(CCC2)N1CCc1ccc2c(c1)OCO2	85.4 µM	55.7 µM	> 100 µM	> 100 µM	> 100 µM	> 100 µM		> 100 µM	> 100 µM	> 100 µM	45.1 µM	> 100 µM	> 100 µM	> 100 µM	> 100 µM	> 100 µM
COc1ccc(N2C(=O)C3c4[nH]c5ccccc5c4C4CCC(C(C)C)CC4C3C2=O)cc1 (stereo unspecified)	> 100 µM		> 100 µM	> 100 µM	> 100 µM	> 100 µM	> 100 µM	> 100 µM	> 100 µM	> 100 µM	> 100 µM	> 100 µM	> 100 µM	> 100 µM	> 100 µM	> 100 µM
c1ccc(C(CCN2CCCC2)c2ccccn2)cc1 (stereo unspecified)	> 100 µM		> 100 µM	> 100 µM	> 100 µM	> 100 µM		> 100 µM	> 100 µM	> 100 µM	> 100 µM	> 100 µM	> 100 µM	> 100 µM	> 100 µM	> 100 µM
CC(NC(=O)C(C)C(=O)NCc1ccc(C(F)(F)F)cc1)C(N)=O (stereo unspecified)	> 100 µM	> 100 µM	> 100 µM	> 100 µM	> 100 µM	> 100 µM			> 100 µM	> 100 µM	> 100 µM	> 100 µM		> 100 µM	> 100 µM	> 100 µM
CC1CCC2c3c([nH]c4ccccc34)C3C(=O)N(C4CCCCC4)C(=O)C3C2C1 (stereo unspecified)	32.7 µM	> 100 µM	> 100 µM	59.3 µM	26.8 µM	> 100 µM	39.8 µM		> 100 µM	> 100 µM	> 100 µM	29.8 µM	34.1 µM	32 µM	> 100 µM	> 100 µM
C/C=C/C=C/C1=NN(c2cccc(S(=O)(=O)O)c2)C2(C1)SCC(=O)N2c1nc2ccccc2s1 (stereo unspecified)	> 100 µM	> 100 µM	> 100 µM	> 100 µM	> 100 µM	> 100 µM		> 100 µM	> 100 µM	> 100 µM	> 100 µM	> 100 µM	> 100 µM	> 100 µM	> 100 µM	87.6 µM
C=C1C(=O)[C@]23[C@H](O)[C@H]1CC[C@H]2[C@@]12CO[C@@]3(O)C[C@@H]1C(C)(C)CC[C@@H]2O	8.33 µM	> 25 µM	> 25 µM		17.9 µM	> 25 µM	> 25 µM	> 25 µM	> 25 µM	> 25 µM	> 25 µM	20.9 µM	22.3 µM	> 25 µM	13.8 µM	> 25 µM
O=c1[nH]c(=O)n(C2CC(O)C(CO)O2)cc1NN=NCc1ccccc1 (stereo unspecified)	> 100 µM	> 100 µM	> 100 µM	> 100 µM	> 100 µM	> 100 µM	> 100 µM	> 100 µM	> 100 µM	> 100 µM		> 100 µM	> 100 µM	> 100 µM		> 100 µM
O=C(c1ccc(Cl)cc1)N1N=C(c2ccc(Cl)cc2)CC1(O)c1cc(F)c(Cl)cc1Cl (stereo unspecified)	> 100 µM	87 µM	72.5 µM	78.3 µM	> 100 µM	28.5 µM	55.6 µM	51.5 µM	> 100 µM	> 100 µM	40.3 µM	> 100 µM	> 100 µM	> 100 µM	> 100 µM	
CC(=O)O[C@H]1CC[C@@]2(C)C(=CC[C@@H]3[C@@H]2CC[C@]2(C)c4nc(N)c(C#N)cc4C[C@@H]32)C1	> 63.7 µM	> 94.9 µM	> 62.2 µM	> 100 µM	> 100 µM	> 100 µM	23.8 µM	> 86.9 µM	> 100 µM	> 100 µM	> 100 µM	> 100 µM	> 100 µM	> 100 µM	> 100 µM	
N=C(N)n1[nH]c2c(c1=O)CCC2	> 100 µM	> 100 µM	> 100 µM	> 100 µM	> 100 µM	> 100 µM	> 100 µM	> 100 µM	> 100 µM	> 100 µM		> 100 µM	> 100 µM	> 100 µM	> 100 µM	> 100 µM
